Where two headings read alike, the source gives them in different places.
Key:
HIV protease = biological target: T1, HIV protease (Human immunodeficiency virus type 1 group M subtype B, UniProt P04585); assay: HIV Protease Assay; type: biochemical
T1 construct: and purified protease
Summary of the method: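 At a single final concentration of 10 μM (4% DMSO), inhibitors were added to a 30-minute, 37° C reaction of purified enzyme with 450 μM H2N-Val-Ser-Gln-Asn-(β-naphthyl-alanine)-Pro-Val-Ile-OH at pH 5.5 (sodium acetate, BSA). Hydrolysis was quantified by reverse-phase HPLC with 220 nm detection after acid quench.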

[1] = tested on: RF strain of HIV (CEM-SS cells); assay: Cell Culture Anti-HIV Activity (cell viability, formazan); type: cell-based; settings: Human immunodeficiency virus 1, CEM-SS, 144 h, CEM-SS cells, RF strain of HIV, multiplicity of infection 0.04, 6 days at 37° C., 450 nm; read-out: HIV (CEM Cells) IC50
Summary of the method: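 Half-log compound dilutions added to CEM-SS cells (5000/well) carrying HIV RF (MOI 0.04), 6 days, 37° C. Cell protection measured as formazan from tetrazolium, A450. IC50: drug level restoring infected-cell formazan to 50% of the uninfected untreated control.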

[2] = pH 5.5, 10 μM inhibitor, 4% DMSO, 450 μM substrate, pH 5.5, 30 minutes at 37° C., RP-HPLC, read-out: HIV Protease % Inhibition at 10 μM

Row | SMILES | inhibition at 10 µM (HIV protease; [2]) | IC50 [1] | inhibition at 10 µM (HIV protease; pH 5.5, read-out: HIV Protease % Inhibition at 10 μM)
1 | COC(=O)N[C@H](C(=O)N[C@@H](Cc1ccccc1)[C@H](O)CNC[C@@H](O)[C@H](Cc1ccccc1)NC(=O)OC(C)(C)C)C(C)(C)C (relative stereo) [Compound 246, [1R*,2S*(2S*,3R*)]-N-[3-[[3-[[(1,1-Dimethylethoxy)carbonyl]amino]-2-hydroxy-4-phenylbutyl]amino]-2-hydroxy-1-(phenylmethyl)propyl]-N^2-(2-methoxycarbonyl)-3-methyl-L-valinamide] | 100% | 40 nM | 
2 | CC(C)(C)OC(=O)N[C@@H](Cc1ccccc1)[C@H](O)CNC[C@@H](O)[C@H](Cc1ccccc1)NC(=O)OC1CCS(=O)(=O)C1 (stereo partly drawn) [Compound 360, [1S-(1R*,2S*)]-[Iminobis[2-hydroxy-1-(phenylmethyl)-3,1-propanediyl)]bis[carbamic acid], 1,1-dimethylethyl tetrahydro-1,1-dioxo-3-thienyl ester] | 96% | 450 nM | 
3 | CC(C)(C)OC(=O)N[C@@H](Cc1ccccc1)[C@H](O)CNC[C@@H](O)[C@H](Cc1ccccc1)NC(=O)[C@@H](NC(=O)OCc1nc2ccccc2o1)C(C)(C)C [Compound 257, [S-[1R*,2S*(2S*,3R*)]]-[2,2-Dimethyl-1-[[[3-[[3-[[(1,1-dimethylethoxy)carbonyl]amino]-2-hydroxy-4-phenylbutyl]-amino]-2-hydroxy-1-(phenylmethyl)propyl]amino]-carbonyl]propyl]carbamic acid, (2-benzoxazolyl)methyl ester] | 99% | 30 nM | 
4 | CC(C)(CO)OC(=O)N[C@@H](Cc1ccccc1)[C@H](O)CNC[C@@H](O)[C@H](Cc1ccccc1)NC(=O)C1(O)CCCC1(C)C (single isomer, unassigned; isomer a) [Compound 368, [1S-[1R*,2S*(2S*,3R*)] -[3-[[3-[[(2,2-Dimethyl-1-hydroxycyclopentyl)-carbonyl]amino]-2-hydroxy-4-phenylbutyl]amino]-2-hydroxy-1-(phenylmethyl)propyl]carbamic acid, 2-hydroxy-1,1-dimethylethyl ester, isomer A] | 98% | 17 nM | 
5 | CC(C)[C@H](NC(=O)Cc1nc2ccccc2[nH]1)C(=O)N[C@@H](Cc1ccccc1)[C@H](O)CNC[C@@H](O)[C@H](Cc1ccccc1)NC(=O)OC(C)(C)C (relative stereo) [Compound 105, S-[1R*,2S*(2S*,3R*)]-N-[3-[[3-[[(1,1-Dimethylethoxy)carbonyl]amino]-2-hydroxy-4-phenylbutyl]amino]-2-hydroxy-1-(phenylmethyl)-propyl]-N^2-(1H-benzimidazol-2-ylacetyl)-L-valinamide] | 99% | 1600 nM | 
6 | CC(C)(C)OC(=O)N[C@@H](Cc1ccccc1)[C@H](O)CNC[C@@H](O)[C@H](Cc1ccccc1)NC(=O)OC1COC1 [Compound 319] | 93% | 1370 nM | 
7 | COC(=O)N[C@H](C(=O)N[C@@H](Cc1ccc(OCC(=O)N2CCOCC2)cc1)[C@H](O)CNC[C@@H](O)[C@H](Cc1ccccc1)NC(=O)OC(C)(C)C)C(C)(C)C (relative stereo) [Compound 341, [1R*,2S*(2S*,3R*)]-N-[3-[[3-[[(1,1-Dimethylethoxy)carbonyl]amino]-2-hydroxy-4-phenylbutyl]amino]-2-hydroxy-1-[[4-[2-(4-morpholinyl)-2-oxoethoxy]phenyl]methyl]propyl]-N^2-(2-methoxycarbonyl)-3-methyl-L-valinamide] | 99% | 2100 nM | 
8 | O=C(N[C@@H](Cc1ccccc1)[C@H](O)CNC[C@@H](O)[C@H](Cc1ccccc1)NC(=O)OCc1ccccc1)OCc1ccccc1 [Compound 44, [R-(R*,S*)]-Iminobis[2-hydroxy-1-(phenylmethyl)-3,1-propandiyl]]biscarbamic acid, bis(phenylmethyl) ester] | 58% | > 5000 nM | 
9 | COCCOc1ccc(C[C@H](NC(=O)OC(C)(C)C)[C@H](O)CNC[C@@H](O)[C@H](Cc2ccccc2)NC(=O)OC(C)(C)CO)cc1 [Compound 299, [1S-[1R*, 2S*(2S*,3R*)]-[3-[[(1,1-Dimethylethoxy)carbonyl]amino]-2-hydroxy-4-[4-(2-methoxyethoxy)phenyl]butyl]amino]-2-hydroxy-1-(phenylmethyl)propyl]carbamic acid, 1-(hydroxymethyl)-1-methylethyl ester] | 99% | 240 nM | 
10 | CC(C)[C@H](NC(=O)OC[C@H](O)CO)C(=O)N[C@@H](Cc1ccccc1)[C@H](O)CNC[C@@H](O)[C@H](Cc1ccccc1)NC(=O)OC(C)(C)C (relative stereo) [Compound 219, [[1R*,2S*(2S*,3R*)],N^2-(S*)]-N^2-[(2,3-Dihydroxypropoxy)carbonyl]-N-[3-[[3-[[(1,1-dimethylethoxy)carbonyl]-amino]-2-hydroxy-4-phenylbutyl]amino]-2-hydroxy-1-(phenylmethyl)propyl]-L-valinamide] | 86% | 35000 nM | 
11 | CC(C)(O)COc1ccc(C[C@H](NC(=O)OC(C)(C)C)[C@H](O)CNC[C@@H](O)[C@H](Cc2ccccc2)NC(=O)OC(C)(C)C)cc1 [Compound 358, [1S-[1R*,2S*(2S*,3R*)]]-[3-[[3-[[(1,1-Dimethylethoxy)carbonyl]amino]-2-hydroxy-4-[4-(2-hydroxy-2-methylpropoxy)phenyl]butyl]amino]-2-hydroxy-1-(phenylmethyl)propyl]carbamic acid, 1,1-dimethylethyl ester] |  | 100 nM | 99%
12 | CC(C)(C)NC(=O)N[C@@H](Cc1ccccc1)[C@H](O)CNC[C@@H](O)[C@H](Cc1ccccc1)NC(=O)OC(C)(C)C [Compound 50, [1S-[1R*,2S*(2S*,3R*)]]-[3-[[3-[[[(1,1-Dimethylethyl)amino]carbonyl]amino]-2-hydroxy-4-phenylbutyl]amino]-2-hydroxy-1-(phenylmethyl)propyl]carbamic acid, 1,1-dimethylethyl ester] | 97% | 220 nM | 
13 | CC(C)(C)OC(=O)N[C@@H](Cc1ccccc1)[C@H](O)CNC[C@@H](O)[C@H](Cc1ccccc1)NC(=O)[C@@H](NC(=O)CNC=O)C(C)(C)C (relative stereo) [Compound 286, [1R*,2S*(2S*,3R*)]-N-[3-[[(1,1-Dimethylethoxy)carbonyl]amino]-2-hydroxy-4-phenylbutyl]amino]-2-hydroxy-1-(phenylmethyl)propyl]-N^2-(N-formylglycyl)-3-methyl-L-valinamide] | 99% | 5000 nM | 
14 | CC(C)[C@H](NC(=O)OCc1ccccc1)C(=O)N[C@@H](Cc1ccccc1)[C@H](O)CNC[C@@H](O)[C@H](Cc1ccccc1)NC(=O)OC(C)(C)C [Compound 52, [S-[1R*,2S*(2S*, 3R*)]-N-[3-[[3-[[(1,1-Dimethylethoxy)carbonyl]amino]-2-hydroxy-4-phenylbutyl]-amino]-2-hydroxy-1-(phenylmethyl)propyl-N^2-[(phenylmethoxy)carbonyl]-L-valinamide] | 100% | 200 nM | 
15 | CC(C)(C)OC(=O)N[C@@H](Cc1ccccc1)[C@H](O)CNC[C@@H](O)[C@H](Cc1ccccc1)NC(=O)OC(C)(C)CCCO [Compound 229, [R-(R*,S*)]-[Iminobis[2-hydroxy-1-(phenylmethyl)-3,1-propanediyl)]biscarbamic acid, 4-hydroxy-1,1-dimethyl-butyl 1,1-dimethylethyl ester] | 82% | 600 nM | 
16 | CC(C)(C)OC(=O)N[C@@H](Cc1ccccc1)[C@H](O)CNC[C@@H](O)[C@H](Cc1ccc(O)cc1)NC(=O)OC(C)(C)CO [Compound 233, [1S-[1R*,2S*(2S*,3R*)]]-[3-[[3-[[(1,1-Dimethylethoxy)carbonyl]amino]-2-hydroxy-4-(4-hydroxyphenyl)butyl]amino]-2-hydroxy-1-(phenylmethyl)propyl]carbamic acid,2-hydroxy-1,1-dimethylethyl ester] | 100% | 1000 nM | 
17 | C[C@H](O)[C@H](NC(=O)OCc1ccccc1)C(=O)N[C@@H](Cc1ccccc1)[C@H](O)CNC[C@@H](O)[C@H](Cc1ccccc1)NC(=O)OC(C)(C)C (relative stereo) [Compound 205, [1R*,2S*(2S*,3R*)]-N-[3-[[3-[[(1,1-Dimethylethoxy)carbonyl]amino]-2-hydroxy-4-phenylbutyl]amino]-2-hydroxy-1-(phenylmethyl)propyl]-N^2-[(phenylmethoxy)carbonyl]-L-allothreoninamide] | 98% | 70 nM | 
18 | CC(C)(C)OC(=O)N[C@@H](Cc1ccccc1)[C@H](O)CNC[C@@H](O)[C@H](Cc1ccccc1)NC(=O)[C@@H](NC(=O)OCc1ncc(-c2ccccc2)o1)C(C)(C)C [Compound 347, [S-(1R*,2S*(2S*,3R*)]]-[2,2-Dimethyl-1-[[[3-[[3-[[1,1-dimethylethoxy)-carbonyl]amino]-2-hydroxy-4-phenylbutyl]amino]-2-hydroxy-1-(phenylmethyl)propyl]amino]carbonyl]-propyl]carbamic acid, (5-phenyl-2-oxazolyl)methyl ester] | 99% | 50 nM | 

Reference: patent US5760036A, “Aminediol protease inhibitors” (E. R. Squibb & Sons, Inc., priority 1995, dated 1998)
